Assays:
HDAC8 = HDAC8 (Homo sapiens (Human), UniProt Q9BY41); conditions: read-out: HDAC8 IC50
HDAC1 = HDAC1 (Homo sapiens (Human), UniProt Q13547); conditions: read-out: HDAC1 IC50
HDAC1, sequence (Q13547 whole entry): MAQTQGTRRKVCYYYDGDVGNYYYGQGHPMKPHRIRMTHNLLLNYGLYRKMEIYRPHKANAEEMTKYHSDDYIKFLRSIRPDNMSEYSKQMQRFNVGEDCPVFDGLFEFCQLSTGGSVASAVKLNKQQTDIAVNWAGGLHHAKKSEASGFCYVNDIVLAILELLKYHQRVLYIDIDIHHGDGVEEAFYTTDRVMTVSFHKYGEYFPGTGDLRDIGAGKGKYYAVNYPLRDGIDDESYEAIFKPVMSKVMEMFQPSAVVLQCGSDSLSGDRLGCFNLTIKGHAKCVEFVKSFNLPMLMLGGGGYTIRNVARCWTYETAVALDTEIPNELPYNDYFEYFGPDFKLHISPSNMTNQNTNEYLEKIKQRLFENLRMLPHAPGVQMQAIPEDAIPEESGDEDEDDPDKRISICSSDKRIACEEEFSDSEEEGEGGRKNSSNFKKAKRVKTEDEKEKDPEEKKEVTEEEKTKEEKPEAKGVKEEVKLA
Protocol: Assay protocol: In brief, compounds were titrated in 100% DMSO via accoustic dispensing directly to the assay plate using the ECHO 550 [Labcyte]. HDAC enzymes at the concentrations indicated above were added in assay buffer to the assay plates containing the compounds using a Combi [Thermo Scientific]. The wells were mixed, and the plates were allowed to pre-incubate at ambient temperature for 3 h. After the 3 h, the appropriate substrate, at the concentrations indicated above, was added to the wells using a Combi. The wells were mixed, and the plates were allowed to incubate at ambient temperature for 1 h. After the 1 h, the appropriate Developer/stop solution was added to the wells using a Combi. The wells were mixed, and the plates were allowed to incubate at ambient temperature for 1 h. […] Data were analyzed using 4P curve fitting with Activity Base [IDBS] software.

HDAC8, sequence (Q9BY41 whole entry): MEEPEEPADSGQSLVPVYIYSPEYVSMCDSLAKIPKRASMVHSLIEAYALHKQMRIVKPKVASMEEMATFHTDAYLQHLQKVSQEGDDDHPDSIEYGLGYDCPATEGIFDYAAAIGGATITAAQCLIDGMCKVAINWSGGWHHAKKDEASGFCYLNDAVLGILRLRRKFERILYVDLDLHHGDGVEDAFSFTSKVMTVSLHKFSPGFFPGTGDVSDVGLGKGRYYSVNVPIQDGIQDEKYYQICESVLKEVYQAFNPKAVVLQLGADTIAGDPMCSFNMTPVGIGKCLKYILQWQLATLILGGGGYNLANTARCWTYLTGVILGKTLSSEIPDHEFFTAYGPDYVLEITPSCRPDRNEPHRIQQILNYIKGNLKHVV

| SMILES | IC50 (HDAC8) [nM] | IC50 (HDAC1) [nM] |
| --- | --- | --- |
| Cc1noc([C@@H]2COCC(=O)N2c2ccc(-c3noc(C(F)(F)F)n3)cc2)n1 [Example 47, (S)-5-(3-methyl-1,2,4-oxadiazol-5-yl)-4-(4-(5-(trifluoromethyl)-1,2,4-oxadiazol-3-yl)phenyl)morpholin-3-one] | 3000 | 1500 |
| CC(C)c1ncc(C(=O)N(Cc2ccc(-c3noc(C(F)(F)F)n3)cn2)c2cccc(F)c2)cn1 [Example 53, N-(3-fluorophenyl)-2-isopropyl-N-((5-(5-(trifluoromethyl)-1,2,4-oxadiazol-3-yl)pyridin-2-yl)methyl)pyrimidine-5-carboxamide] | 1800 | 170 |
| Cc1nccnc1C(=O)N(Cc1ccc(-c2noc(C(F)(F)F)n2)cn1)c1cccc(F)c1 [Example 56, N-(3-fluorophenyl)-3-methyl-N-((5-(5-(trifluoromethyl)-1,2,4-oxadiazol-3-yl)pyridin-2-yl)methyl)pyrazine-2-carboxamide] | 3100 | 250 |
| Cc1cc(CC(=O)N(Cc2ccc(-c3noc(C(F)(F)F)n3)cn2)c2cccc(F)c2)on1 [Example 59, N-(3-fluorophenyl)-2-(3-methylisoxazol-5-yl)-N-((5-(5-(trifluoromethyl)-1,2,4-oxadiazol-3-yl)pyridin-2-yl)methyl)acetamide] | 1500 | 210 |
| Cc1nonc1CC(=O)N(Cc1ccc(-c2noc(C(F)(F)F)n2)cn1)c1cccc(F)c1 [Example 62, N-(3-fluorophenyl)-2-(4-methyl-1,2,5-oxadiazol-3-yl)-N-((5-(5-(trifluoromethyl)-1,2,4-oxadiazol-3-yl)pyridin-2-yl)methyl)acetamide] | 3500 | 480 |
| O=C(N(Cc1ccc(-c2noc(C(F)(F)F)n2)cn1)c1cccc(F)c1)C1(CN2CCOCC2)CC1 [Example 65, N-(3-fluorophenyl)-1-(morpholinomethyl)-N-((5-(5-(trifluoromethyl)-1,2,4-oxadiazol-3-yl)pyridin-2-yl)methyl)cyclopropane-1-carboxamide] | 3000 | 240 |
| CC(=O)N1CCN(CC(=O)N(Cc2ccc(-c3noc(C(F)(F)F)n3)cc2)c2cccc(C(F)(F)F)c2)CC1 [Example 69, 2-(4-acetylpiperazin-1-yl)-N-(4-(5-(trifluoromethyl)-1,2,4-oxadiazol-3-yl)benzyl)-N-(3-(trifluoromethyl)phenyl)acetamide] | 2600 | 1300 |
| O=C(Cn1ncccc1=O)N(Cc1ccc(-c2noc(C(F)(F)F)n2)cc1)c1cccc(C(F)(F)F)c1 [Example 70, 2-(6-oxopyridazin-1(6H)-yl)-N-(4-(5-(trifluoromethyl)-1,2,4-oxadiazol-3-yl)benzyl)-N-(3-(trifluoromethyl)phenyl)acetamide] | 2200 | 960 |
| O=C(c1cncnc1)N(Cc1ccc(-c2noc(C(F)(F)F)n2)cc1)c1cccc(C(F)(F)F)c1 [Example 71, N-(4-(5-(trifluoromethyl)-1,2,4-oxadiazol-3-yl)benzyl)-N-(3-(trifluoromethyl)phenyl)pyrimidine-5-carboxamide] | 2800 | 670 |
| O=C(CCCn1cncn1)N(Cc1ccc(-c2noc(C(F)(F)F)n2)cc1)c1cccc(C(F)(F)F)c1 [Example 72, 4-(1H-1,2,4-triazol-1-yl)-N-(4-(5-(trifluoromethyl)-1,2,4-oxadiazol-3-yl)benzyl)-N-(3-(trifluoromethyl)phenyl)butanamide] | 2000 | 1900 |
| Cc1nnc(CC(=O)N(Cc2ccc(-c3noc(C(F)(F)F)n3)cc2)c2cccc(C(F)(F)F)c2)n1C [Example 75, 2-(4,5-dimethyl-4H-1,2,4-triazol-3-yl)-N-(4-(5-(trifluoromethyl)-1,2,4-oxadiazol-3-yl)benzyl)-N-(3-(trifluoromethyl)phenyl)acetamide] | 2300 | 860 |
| O=C(Cn1ccnn1)N(Cc1ccc(-c2noc(C(F)(F)F)n2)cc1)c1cccc(C(F)(F)F)c1 [Example 76, 2-(1H-1,2,3-triazol-1-yl)-N-(4-(5-(trifluoromethyl)-1,2,4-oxadiazol-3-yl)benzyl)-N-(3-(trifluoromethyl)phenyl)acetamide] | 2100 | 1000 |
| Cc1nc(C)n(CC(=O)N(Cc2ccc(-c3noc(C(F)(F)F)n3)cc2)c2cccc(C(F)(F)F)c2)n1 [Example 77, 2-(3,5-dimethyl-1H-1,2,4-triazol-1-yl)-N-(4-(5-(trifluoromethyl)-1,2,4-oxadiazol-3-yl)benzyl)-N-(3-(trifluoromethyl)phenyl)acetamide] | 3300 | 1400 |
| CC(=O)NCCC(=O)N(Cc1ccc(-c2noc(C(F)(F)F)n2)cc1)c1cccc(C(F)(F)F)c1 [Example 78, 3-acetamido-N-(4-(5-(trifluoromethyl)-1,2,4-oxadiazol-3-yl)benzyl)-N-(3-(trifluoromethyl)phenyl)propanamide] | 2300 | 890 |
| O=C(CC1COC1)N(Cc1ccc(-c2noc(C(F)(F)F)n2)cc1)c1cccc(C(F)(F)F)c1 [Example 80, 2-(oxetan-3-yl)-N-(4-(5-(trifluoromethyl)-1,2,4-oxadiazol-3-yl)benzyl)-N-(3-(trifluoromethyl)phenyl)acetamide] | 2800 | 1600 |
| O=C(CN1CCS(=O)(=O)CC1)N(Cc1ccc(-c2noc(C(F)(F)F)n2)cc1)c1cccc(C(F)(F)F)c1 [Example 81, 2-(1,1-dioxidothiomorpholino)-N-(4-(5-(trifluoromethyl)-1,2,4-oxadiazol-3-yl)benzyl)-N-(3-(trifluoromethyl)phenyl)acetamide] | 4900 | 1300 |
| CN(C)CC(=O)N(Cc1ccc(-c2noc(C(F)(F)F)n2)cc1)c1cccc(C(F)(F)F)c1 [Example 83, 2-(dimethylamino)-N-(4-(5-(trifluoromethyl)-1,2,4-oxadiazol-3-yl)benzyl)-N-(3-(trifluoromethyl)phenyl)acetamide] | 3500 | 1200 |
| O=C(C1CCOCC1)N(Cc1ccc(-c2noc(C(F)(F)F)n2)cc1)c1cccc(C(F)(F)F)c1 [Example 85, N-(4-(5-(trifluoromethyl)-1,2,4-oxadiazol-3-yl)benzyl)-N-(3-(trifluoromethyl)phenyl)tetrahydro-2H-pyran-4-carboxamide] | 2300 | 1200 |
| COCCn1nc(C(=O)N(Cc2ccc(-c3noc(C(F)(F)F)n3)cc2)c2cccc(C(F)(F)F)c2)ccc1=O [Example 86, 1-(2-methoxyethyl)-6-oxo-N-(4-(5-(trifluoromethyl)-1,2,4-oxadiazol-3-yl)benzyl)-N-(3-(trifluoromethyl)phenyl)-1,6-dihydropyridazine-3-carboxamide] | 3300 | 1200 |
| Cn1nc(C(=O)N(Cc2ccc(-c3noc(C(F)(F)F)n3)cc2)c2cccc(C(F)(F)F)c2)ccc1=O [Example 88, 1-methyl-6-oxo-N-(4-(5-(trifluoromethyl)-1,2,4-oxadiazol-3-yl)benzyl)-N-(3-(trifluoromethyl)phenyl)-1,6-dihydropyridazine-3-carboxamide] | 3000 | 940 |
| O=C(CCn1cncn1)N(Cc1ccc(-c2noc(C(F)(F)F)n2)cc1)c1cccc(C(F)(F)F)c1 [Example 89, 3-(1H-1,2,4-triazol-1-yl)-N-(4-(5-(trifluoromethyl)-1,2,4-oxadiazol-3-yl)benzyl)-N-(3-(trifluoromethyl)phenyl)propanamide] | 2000 | 1100 |
| CC(C)C(=O)N1CCC(C(=O)N(Cc2ccc(-c3noc(C(F)(F)F)n3)cc2)c2cccc(C(F)(F)F)c2)CC1 [Example 90, 1-isobutyryl-N-(4-(5-(trifluoromethyl)-1,2,4-oxadiazol-3-yl)benzyl)-N-(3-(trifluoromethyl)phenyl)piperidine-4-carboxamide] | 2500 | 1400 |
| CC(C)(C)OC(=O)N(Cc1ccc(-c2noc(C(F)(F)F)n2)cn1)c1cccc(F)c1 [Example 91, tert-butyl (3-fluorophenyl)((5-(5-(trifluoromethyl)-1,2,4-oxadiazol-3-yl)pyridin-2-yl)methyl)carbamate] | 19000 | 1300 |
| CN1CCN(CC(=O)N(Cc2ccc(-c3noc(C(F)(F)F)n3)cc2)c2cccc(C(F)(F)F)c2)CC1 [Example 93, 2-(4-methylpiperazin-1-yl)-N-(4-(5-(trifluoromethyl)-1,2,4-oxadiazol-3-yl)benzyl)-N-(3-(trifluoromethyl)phenyl)acetamide] | 2200 | 990 |
| O=C(Cc1cnccn1)N(Cc1ccc(-c2noc(C(F)(F)F)n2)cc1)c1cccc(C(F)(F)F)c1 [Example 94, 2-(pyrazin-2-yl)-N-(4-(5-(trifluoromethyl)-1,2,4-oxadiazol-3-yl)benzyl)-N-(3-(trifluoromethyl)phenyl)acetamide] | 2300 | 1400 |
| Cn1ccc(CN(Cc2ccc(-c3noc(C(F)(F)F)n3)cc2)c2cccc(C(F)(F)F)c2)n1 [Example 96, N-((1-methyl-1H-pyrazol-3-yl)methyl)-3-(trifluoromethyl)-N-(4-(5-(trifluoromethyl)-1,2,4-oxadiazol-3-yl)benzyl)aniline] | 30000 | 2400 |
| O=C(Cn1cnc2ccccc21)N(Cc1ccc(-c2noc(C(F)(F)F)n2)cc1)c1cccc(C(F)(F)F)c1 [Example 98, 2-(1H-benzo[d]imidazol-1-yl)-N-(4-(5-(trifluoromethyl)-1,2,4-oxadiazol-3-yl)benzyl)-N-(3-(trifluoromethyl)phenyl)acetamide] | 2300 | 4200 |
| Cc1nc2ccc(F)cc2n1Cc1ccc(-c2noc(C(F)(F)F)n2)cc1F [Example 99, 3-(3-fluoro-4-((6-fluoro-2-methyl-1H-benzo[d]imidazol-1-yl)methyl)phenyl)-5-(trifluoromethyl)-1,2,4-oxadiazole] | 5900 | 1900 |
| CN(C)c1cccc(COc2cc(-c3noc(C(F)(F)F)n3)ccn2)n1 [Example 101, N,N-dimethyl-6-(((4-(5-(trifluoromethyl)-1,2,4-oxadiazol-3-yl)pyridin-2-yl)oxy)methyl)pyridin-2-amine] | 17000 | 20000 |
